Results as given in PubChem BioAssay (NCI).
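Grown in 96-well plates, cells were treated for 48 hours with each compound at five concentrations. Insufficient inhibition: endpoint recorded as highest concentration tested. TGI marks complete inhibition of growth.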

Assays:
Assay in all cases: inhibition of tumour cell growth, NCI panel, 48 h
[1] = test system: 786-0 renal
[2] = test system: A549 NSCLC
[3] = test system: ACHN renal
[4] = test system: CCRF-CEM leukemia
[5] = test system: COLO 205 colon
[6] = test system: DLD-1 colon
[7] = test system: DMS 273 small cell lung
[8] = test system: EKVX NSCLC
[9] = test system: HCC-2998 colon
[10] = test system: HCT-116 colon
[11] = test system: HCT-15 colon
[12] = test system: HL-60(TB) leukemia
[13] = test system: HOP-18 NSCLC
[14] = test system: HOP-62 NSCLC
[15] = test system: HT29 colon
[16] = test system: K-562 leukemia
[17] = test system: KM12 colon
[18] = test system: LOX IMVI melanoma
[19] = test system: M14 melanoma
[20] = test system: M19-MEL melanoma
[21] = test system: MALME-3M melanoma
[22] = test system: MOLT-4 leukemia
[23] = test system: NCI-H226 lung
[24] = test system: NCI-H23 lung
[25] = test system: NCI-H460 lung
[26] = test system: NCI-H522 lung
[27] = test system: OVCAR-3 ovarian
[28] = test system: OVCAR-4 ovarian
[29] = test system: OVCAR-5 ovarian
[30] = test system: OVCAR-8 ovarian
[31] = test system: RPMI-8226 leukemia
[32] = test system: SF-268 CNS
[33] = test system: SF-295 CNS
[34] = test system: SF-539 CNS
[35] = test system: SK-MEL-2 melanoma
[36] = test system: SK-MEL-28 melanoma
[37] = test system: SK-MEL-5 melanoma
[38] = test system: SN12C renal
[39] = test system: SNB-19 CNS
[40] = test system: SNB-75 CNS
[41] = test system: SNB-78 CNS
[42] = test system: SR leukemia
[43] = test system: SW-620 colon
[44] = test system: TK-10 renal
[45] = test system: UACC-257 melanoma
[46] = test system: UO-31 renal
[47] = test system: XF 498 CNS
[48] = test system: A498 renal
[49] = test system: CAKI-1 renal
[50] = test system: DMS 114 small cell lung
[51] = test system: HOP-92 NSCLC
[52] = test system: IGROV1 ovarian
[53] = test system: KM20L2 colon
[54] = test system: LXFL 529 NSCLC
[55] = test system: SK-OV-3 ovarian
[56] = test system: U251 CNS
[57] = test system: UACC-62 melanoma

Structure (SMILES): c1cncc(CSc2nc3ccccc3nc2-c2cccs2)c1
- TGI [1]: > 100 µM
- TGI [2]: > 100 µM
- TGI [3]: > 100 µM
- TGI [4]: > 100 µM
- TGI [5]: > 100 µM
- TGI [6]: > 100 µM
- TGI [7]: > 100 µM
- TGI [8]: > 100 µM
- TGI [9]: > 100 µM
- TGI [10]: > 100 µM
- TGI [11]: > 100 µM
- TGI [12]: 47.9 µM
- TGI [13]: > 100 µM
- TGI [14]: > 100 µM
- TGI [15]: > 100 µM
- TGI [16]: > 100 µM
- TGI [17]: > 100 µM
- TGI [18]: > 100 µM
- TGI [19]: > 100 µM
- TGI [20]: > 100 µM
- TGI [21]: > 100 µM
- TGI [22]: 98.7 µM
- TGI [23]: > 100 µM
- TGI [24]: > 100 µM
- TGI [25]: > 100 µM
- TGI [26]: > 100 µM
- TGI [27]: 83.3 µM
- TGI [28]: > 100 µM
- TGI [29]: > 100 µM
- TGI [30]: > 100 µM
- TGI [31]: > 100 µM
- TGI [32]: > 100 µM
- TGI [33]: > 100 µM
- TGI [34]: > 100 µM
- TGI [35]: > 100 µM
- TGI [36]: > 100 µM
- TGI [37]: > 100 µM
- TGI [38]: > 100 µM
- TGI [39]: > 100 µM
- TGI [40]: > 100 µM
- TGI [41]: > 100 µM
- TGI [42]: > 100 µM
- TGI [43]: > 100 µM
- TGI [44]: > 100 µM
- TGI [45]: > 100 µM
- TGI [46]: > 100 µM
- TGI [47]: > 100 µM

Structure (SMILES): COc1ccc2c(c1)CCc1c-2n[nH]c1-c1[nH]nc2c1CCc1cc(OC)ccc1-2
- TGI [1]: 41.1 µM
- TGI [48]: > 100 µM
- TGI [2]: > 100 µM
- TGI [3]: > 100 µM
- TGI [49]: 92.7 µM
- TGI [4]: > 100 µM
- TGI [5]: > 100 µM
- TGI [6]: > 100 µM
- TGI [50]: > 100 µM
- TGI [7]: 52.8 µM
- TGI [8]: > 100 µM
- TGI [9]: > 100 µM
- TGI [10]: > 100 µM
- TGI [11]: > 100 µM
- TGI [12]: > 100 µM
- TGI [13]: 98.5 µM
- TGI [14]: 56.3 µM
- TGI [51]: 78.1 µM
- TGI [15]: > 100 µM
- TGI [52]: > 100 µM
- TGI [16]: > 100 µM
- TGI [17]: > 100 µM
- TGI [53]: > 100 µM
- TGI [18]: > 100 µM
- TGI [54]: > 100 µM
- TGI [19]: > 100 µM
- TGI [20]: > 100 µM
- TGI [21]: > 100 µM
- TGI [22]: > 100 µM
- TGI [23]: 85.9 µM
- TGI [24]: > 100 µM
- TGI [25]: > 100 µM
- TGI [26]: 67.4 µM
- TGI [29]: > 100 µM
- TGI [30]: > 100 µM
- TGI [32]: > 100 µM
- TGI [33]: 39.5 µM
- TGI [34]: 63.2 µM
- TGI [35]: > 100 µM
- TGI [36]: > 100 µM
- TGI [37]: > 100 µM
- TGI [55]: > 100 µM
- TGI [38]: > 100 µM
- TGI [39]: > 100 µM
- TGI [40]: 61.3 µM
- TGI [41]: > 100 µM
- TGI [42]: > 100 µM
- TGI [43]: > 100 µM
- TGI [44]: > 100 µM
- TGI [56]: > 100 µM
- TGI [45]: > 100 µM
- TGI [57]: > 100 µM
- TGI [46]: > 100 µM
- TGI [47]: 71.2 µM
